Structures can show the parent of a compound that is named as a salt.
Columns and labels:
cloned hA1AR = target: T1, cloned hA1AR (Homo sapiens, UniProt P30542); experiment: Stimulation of [35S]GTPγS binding, CHO cell membranes expressing cloned hA1AR; conditions: for cloned hA1AR % Maximal Stimulation: [35S]GTPγS binding; for EC50: read-out: cloned hA1AR EC50, stimulation of basal [35S]GTPγS binding, n = 3
T1 sequence (P30542 1-326): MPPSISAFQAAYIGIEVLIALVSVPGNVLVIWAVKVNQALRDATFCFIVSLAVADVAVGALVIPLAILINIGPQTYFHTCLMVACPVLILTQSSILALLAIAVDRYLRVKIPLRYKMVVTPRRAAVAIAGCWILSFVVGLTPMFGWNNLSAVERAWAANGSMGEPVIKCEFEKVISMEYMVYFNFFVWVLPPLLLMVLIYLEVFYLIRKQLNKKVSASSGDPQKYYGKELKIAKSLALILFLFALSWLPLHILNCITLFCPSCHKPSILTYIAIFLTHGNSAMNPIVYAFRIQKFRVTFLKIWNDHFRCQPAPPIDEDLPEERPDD
Procedure: (§1) CHO cells stably transfected with either human A1 or A3 receptors (gift of Dr. Gary Stiles and Dr. Mark Olah, Duke University Medical Center) were cultured as monolayers in medium supplemented with 10% fetal bovine serum. […] The final pellets were resuspended in 50 mM Tris.HCl buffer, pH 7.4, containing 10 mM MgCl2 and 0.1 mM EDTA and stored at −70° C.
(§2) After transferring the filters into a vial containing 3 ml of scintillation cocktail, the radioactivity was determined in a scintillation counter.
(§3) Binding of [^35S]GTP-γ-S was studied in membranes prepared from CHO cells stably expressing human A1 or A3 receptors (Table 2).

human A2B receptor = target: T2, human A2B receptor (Homo sapiens, UniProt P29275); experiment: Radioligand binding at human A2B receptor using [3H]ZM 241,385
T2 sequence (P29275 1-332): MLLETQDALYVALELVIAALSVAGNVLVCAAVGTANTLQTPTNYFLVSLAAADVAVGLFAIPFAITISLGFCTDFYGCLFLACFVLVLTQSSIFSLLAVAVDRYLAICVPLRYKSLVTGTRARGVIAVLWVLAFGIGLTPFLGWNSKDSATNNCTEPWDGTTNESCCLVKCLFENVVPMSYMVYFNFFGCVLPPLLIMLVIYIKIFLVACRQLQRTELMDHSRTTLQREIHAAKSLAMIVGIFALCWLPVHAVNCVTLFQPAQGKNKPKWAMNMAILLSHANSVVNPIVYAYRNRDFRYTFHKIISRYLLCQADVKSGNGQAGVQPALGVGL
Procedure: The total volume of the reaction mixture was 125 μl. Bound and free ligands were separated by rapid filtration of the reaction mixture through Whatman GF/B glass filters. The filters were immediately washed with two 5 ml-portions of ice-cold 50 mM Tris.HCl buffer (pH 7.4). The radioactivity bound to the filters was determined in a Beckman gamma counter.

human A3 receptors = target: T3, human A3 receptors (Homo sapiens, UniProt P0DMS8); experiment: A3 adenosine receptor binding using [125I]AB-MECA, transfected CHO cell membranes; conditions: for Ki: human A3 receptors, read-out: K1 (nM), hA3
T3 sequence (P0DMS8 1-318): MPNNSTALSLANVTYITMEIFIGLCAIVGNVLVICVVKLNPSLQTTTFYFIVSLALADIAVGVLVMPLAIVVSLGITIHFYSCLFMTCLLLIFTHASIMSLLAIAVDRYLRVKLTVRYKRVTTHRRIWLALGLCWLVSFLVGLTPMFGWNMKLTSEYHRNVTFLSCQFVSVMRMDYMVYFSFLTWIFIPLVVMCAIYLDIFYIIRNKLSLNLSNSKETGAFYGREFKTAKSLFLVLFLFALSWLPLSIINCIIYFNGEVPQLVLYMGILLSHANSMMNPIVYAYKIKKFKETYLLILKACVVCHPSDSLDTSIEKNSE
Procedure: The final pellets were resuspended in 50 mM Tris.HCl buffer, pH 7.4, containing 10 mM MgCl2 and 0.1 mM EDTA and stored at -70° C. […] The total volume of the reaction mixture was 125 μl. Bound and free ligands were separated by rapid filtration of the reaction mixture through Whatman GF/B glass filters. The filters were immediately washed with two 5 ml-portions of ice-cold 50 mM Tris.HCl buffer (pH 7.4). The radioactivity bound to the filters was determined in a Beckman gamma counter.

rat A1 receptors = target: T4, rat A1 receptors (Rattus norvegicus, UniProt P25099); experiment: Radioligand binding at rat A1 adenosine receptors; conditions: for Ki: rat A1 receptors, read-out: K1 (nM), rA1
T4 sequence (P25099 1-326): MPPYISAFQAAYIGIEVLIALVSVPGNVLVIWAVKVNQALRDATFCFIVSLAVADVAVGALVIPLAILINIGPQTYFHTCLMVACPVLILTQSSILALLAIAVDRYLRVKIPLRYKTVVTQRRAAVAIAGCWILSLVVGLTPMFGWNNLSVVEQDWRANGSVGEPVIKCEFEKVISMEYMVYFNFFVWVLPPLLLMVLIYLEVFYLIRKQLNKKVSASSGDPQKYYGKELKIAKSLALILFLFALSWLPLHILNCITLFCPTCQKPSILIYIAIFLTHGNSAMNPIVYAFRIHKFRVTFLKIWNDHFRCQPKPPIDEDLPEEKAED
Procedure: (§4) Bound and free ligands were separated by rapid filtration of the reaction mixture through Whatman GF/B glass filters. The filters were immediately washed with two 5 ml-portions of ice-cold 50 mM Tris.HCl buffer (pH 7.4). The radioactivity bound to the filters was determined in a Beckman gamma counter.

rat A2A receptors = rat A2A receptors (Rattus norvegicus, UniProt P30543); experiment: Radioligand binding at rat A2A adenosine receptors; conditions: read-out: K1 (nM), rA2A
Procedure: as §4

rA1AR = target: T5, rA1AR (Rattus norvegicus, UniProt P25099); experiment: Stimulation of [35S]GTPγS binding, rat cerebral cortical membranes containing the A1AR; assay type: biochemical
T5 construct: in rat cerebral cortical membranes containing the A1AR; from tissue; host or cells: rat cerebral cortical membranes
T5 sequence (P25099 1-326): T4 sequence (P25099 1-326)
Procedure: as §2

A3 receptors = target: T6, A3 receptors (Rattus norvegicus, UniProt P28647); experiment: Radioligand binding at rat A3 adenosine receptors, values marked (r); conditions: read-out: K1 (nM), A3 (r)
T6 sequence (P28647 1-320): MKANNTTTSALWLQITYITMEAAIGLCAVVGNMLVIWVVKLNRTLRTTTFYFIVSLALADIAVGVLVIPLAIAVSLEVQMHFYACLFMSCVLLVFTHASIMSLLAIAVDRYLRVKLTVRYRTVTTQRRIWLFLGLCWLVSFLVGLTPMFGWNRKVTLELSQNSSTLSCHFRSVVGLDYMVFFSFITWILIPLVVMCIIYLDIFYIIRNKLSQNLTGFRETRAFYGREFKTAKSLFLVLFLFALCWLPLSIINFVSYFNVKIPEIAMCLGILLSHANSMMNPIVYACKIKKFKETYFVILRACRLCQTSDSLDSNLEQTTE
Procedure: as §4

cloned hA3AR = target: T7, cloned hA3AR (Homo sapiens, UniProt P0DMS8); experiment: Stimulation of [35S]GTPγS binding, CHO cell membranes expressing cloned hA3AR
T7 sequence (P0DMS8 1-318): T3 sequence (P0DMS8 1-318)
Procedure: as §1, §2, §3

[1] = target: turkey erythrocyte P2Y1 receptors (Meleagris gallopavo, UniProt P49652); experiment: PLC (inositol phosphate formation) assay in turkey erythrocyte membranes
Chain of turkey erythrocyte P2Y1 receptors (P49652 whole entry): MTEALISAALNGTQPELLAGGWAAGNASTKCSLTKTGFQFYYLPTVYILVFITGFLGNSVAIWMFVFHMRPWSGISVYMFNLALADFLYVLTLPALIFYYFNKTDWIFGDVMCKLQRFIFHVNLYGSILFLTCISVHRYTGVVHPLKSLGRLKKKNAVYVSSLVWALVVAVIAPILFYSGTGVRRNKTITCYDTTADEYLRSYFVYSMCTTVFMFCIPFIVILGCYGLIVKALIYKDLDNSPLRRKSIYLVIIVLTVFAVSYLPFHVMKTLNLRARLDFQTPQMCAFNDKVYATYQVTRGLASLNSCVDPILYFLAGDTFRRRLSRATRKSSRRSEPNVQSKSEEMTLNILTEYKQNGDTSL
Procedure: Concentration-response curves were determined for each compound alone and in combination with 10 nM 2-MeSADP.
P2Y1 receptor promoted stimulation of inositol phosphate formation by adenine nucleotide analogues was measured in turkey erythrocyte membranes as previously described. […] Erythrocyte ghosts were prepared by rapid lysis in hypotonic buffer (5 mM sodium phosphate, pH 7.4, 5 mM MgCl2, 1 mM EGTA) as described. […] Assays (200 μL final volume) contained 1 μM GTPγS and the indicated concentrations of nucleotide analogues. Ghosts were incubated at 30° C. for 5 min, and total [^3H]inositol phosphates were quantitated by anion exchange chromatography as previously described.^7,36
Agonist potencies were calculated using a four-parameter logistic equation and the GraphPad software package (GraphPad, San Diego, Calif.).

Chain of rat A2A receptors (P30543 whole entry): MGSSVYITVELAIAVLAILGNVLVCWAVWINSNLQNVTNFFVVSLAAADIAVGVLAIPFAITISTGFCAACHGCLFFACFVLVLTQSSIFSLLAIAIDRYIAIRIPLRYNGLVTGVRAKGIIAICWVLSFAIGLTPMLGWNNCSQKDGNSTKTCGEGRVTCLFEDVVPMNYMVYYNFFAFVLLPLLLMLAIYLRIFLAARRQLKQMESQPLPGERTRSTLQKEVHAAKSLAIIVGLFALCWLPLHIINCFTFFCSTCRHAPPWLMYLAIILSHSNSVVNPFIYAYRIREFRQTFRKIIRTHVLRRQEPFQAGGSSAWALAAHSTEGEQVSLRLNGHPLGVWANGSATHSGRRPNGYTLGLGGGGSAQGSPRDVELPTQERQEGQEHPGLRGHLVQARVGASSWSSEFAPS

`OCC1C(O)C(O)C2(n3cnc4c(NC5CCCC5)nc(Cl)nc43)CC12` (stereo not drawn) [Compound 8c] was tested, and the “cloned hA1AR % Maximal Stimulation” value (cloned hA1AR) was 97 ± 1%, the EC50 (cloned hA1AR) was 31.2 ± 3.3 nM and the “% displacement, hA2B” value (human A2B receptor; at 100 μM) was 27 ± 7% at 100 μM. For the same compound, the Ki (human A3 receptors) was 466 ± 58 nM, the A1/A3 (human A3 receptors; ratio of Ki at rat A1 to Ki at A3 (human, or rat where marked (r))) was 0.019 and the “selectivity in binding to rat A1 vs. human A3 receptors” value (rat A1 receptors; binding) was 53 fold. For the same compound, the Ki (rat A1 receptors) was 8.76 ± 0.81 nM, the Ki (rat A2A receptors) was 3390 ± 520 nM and the EC50 (rA1AR) was 145 ± 35 nM. For the same compound, the “rA1AR % Maximal Stimulation” value (rA1AR) was 96 ± 2%.

For `CNc1nc(Cl)nc2c1ncn2[C@H]1C[C@H](OP(=O)(O)O)[C@]2(COP(=O)(O)O)C[C@H]12` [Compound 4c, (N)-Methanocarba-N^6-methyl-2-chloro-2′-deoxyadenosine-3′,5′-bis(diammonium phosphate)], the Ki (rat A1 receptors) was 8730 ± 370 nM and the Ki (rat A2A receptors) was 25400 nM.

`OC[C@H]1O[C@@H](n2cnc3c(NCc4cccc(I)c4)nc(Cl)nc32)[C@H](O)[C@@H]1O` [Compound 9a, 2-chloro-N-6-(3iodobenzyl)adenosine] showed a Ki (A3 receptors) of 1.41 ± 0.17 nM.

For `OC[C@H]1O[C@@H](n2cnc3c(NC4CCCC4)ncnc32)[C@H](O)[C@@H]1O` [Compound 6a, CPA, reference compound], the “cloned hA3AR % Maximal Stimulation” value (cloned hA3AR; [35S]GTPγS binding) was 100%, the EC50 (cloned hA3AR; read-out: cloned hA3AR EC50, stimulation of basal [35S]GTPγS binding, n = 3) was 7980 ± 60 nM and the Ki (human A3 receptors) was 274 ± 20 nM.

`CNc1ncnc2c1ncn2[C@H]1C[C@H](OP(=O)(O)O)[C@]2(COP(=O)(O)O)C[C@H]12` [Compound 4b, (1R,2S,4S,5S)-1-[(phosphato)methyl]-4-(6-methylaminopurin-9-yl)bicyclo[[3.1.0.]-hexane-2-phosphatetetraammoniun salt] showed a Ki (human A3 receptors) of 2.24 ± 1.45 nM, a Ki (rat A1 receptors) of 141 ± 22 nM and a Ki (rat A2A receptors) of 732 ± 207 nM.

In the case of `OCC1C(O)C(O)C2(n3cnc4c(NCc5cccc(I)c5)nc(Cl)nc43)CC12` (stereo not drawn) [Compound 9c], the “agonist efficacy at human A3 receptors” value (cloned hA3AR; [35S]GTPγS binding) is reported as “partial A3 receptor agonists”, the “cloned hA3AR % Maximal Stimulation” value (cloned hA3AR; [35S]GTPγS binding) is reported as 22% and the “cloned hA1AR % Maximal Stimulation” value (cloned hA1AR) is reported as 91 ± 1%. It also gave an EC50 (cloned hA1AR) of 142 ± 24 nM, a Ki (human A2B receptor; read-out: K1 (nM), hA2B) of 41000 nM and a Ki (rat A1 receptors) of 141 nM. For the same compound, the Ki (rat A2A receptors) was 732 nM, the EC50 (rA1AR) was 684 ± 75 nM and the “rA1AR % Maximal Stimulation” value (rA1AR) was 48 ± 3%.

With `CNc1nc(Cl)nc2c1ncn2[C@H]1C[C@H](OP(=O)(O)O)C2(COP(=O)(O)O)C[C@H]12` (stereo partly drawn) [Compound 4c, (N)-Methanocarba-N^6-methyl-2-chloro-2′-deoxyadenosine-3′,5′-bis(diammonium phosphate)] the IC50 ([1]; IC50, antagonists, P2Y1 receptors) was 0.053 µM, the IC50 ([1]; IC50, μM, inhibition of the effect elicited by 10 nM 2-MeSADP) was 0.0516 ± 0.0008 µM and the “agonist or antagonist character at P2Y1 receptors” value ([1]; PLC assay) was “antagonists”. It also gave an inhibition at 100 µM ([1]; read-out: Antagonist Effect, % of maximal inhibition) of 100%.

With `Nc1ncnc2c1ncn2[C@@H]1O[C@H](CO)[C@@H](O)[C@H]1O` [Compound 5a, adenosine] the Ki (A3 receptors) was about 1000 nM.
